Measurements: US11173193B2, “Immunobiological products” (priority 2016, dated 2021)
Each block holds one compound with its values, some of them ahead of it.

Experiments:
[1] = tested on: mice; experiment: Ear swelling test of mice, compared to Hostacortin H; format: in vivo
Description: Ear erythema was determined by visual inspection and detection of presence (+) or absence (−) signs.
The thickness of the control and experimental ear in all animals was measured with a micrometer. Performance measurements were summed (Σ) separately the right and left ears in groups. The percentage of ear swelling and activity series is calculated using the following formulas: […]

[2] = tested on: subclinical mastitis; details: known methods of treating mastitis of cows; cited from earlier work
[3] = Solubility of hydro-colloid and chitosan; format: physicochemical
Description: Test solution: An adequate sample of Chitosan HCl, Chitosan-HAc, Chitosan, Chitosan-Valeric acid-Hydro Colloid and valeric acid, respectively was dissolved in the solvent above. This mixture was shacked and afterwards sonified in an ultrasonic bath for 5 min.
Sample: Chitosan suspended in water
Result: An acceptable solution of Chitosan in waterish or organic solvents like Methanol etc. is not possible. A suitable solubilization of Chitosan is only possible in stronger acids like HCl or HAc under production of Chitosan HCl or Chitosan HAc.

[4] = Dose 0.1 ml, right ear (allergen provocation site)

Compound: CC(=O)OCC(=O)[C@@]1(O)CC[C@H]2[C@@H]3CCC4=CC(=O)C=C[C@]4(C)[C@H]3[C@@H](O)C[C@@]21C [prednisolone-21-acetyl, prednisolone-21-acetate]
- Antiallergic activity in Ear swelling test after 2 hours post challenge ([1]; Dose 0.1 ml): 14.2%
- Antiallergic activity in Ear swelling test after 24 hours post challenge ([1]; Dose 0.1 ml): 17.5%
- Antiallergic activity in Ear swelling test after 48 hours post challenge ([1]; Dose 0.1 ml): 10.7%
- Σ Ear thickness after 2 hours post challenge, Left ([1]; Dose 0.1 ml, left ear): 335 μm
- Σ Ear thickness after 24 hours post challenge, Left ([1]; Dose 0.1 ml, left ear): 330 μm
- Σ Ear thickness after 48 hours post challenge, Left ([1]; Dose 0.1 ml, left ear): 326 μm
- Σ Ear thickness after 2 hours post challenge, Right [1, 4]: 345 μm
- Σ Ear thickness after 24 hours post challenge, Right [1, 4]: 360 μm
- Σ Ear thickness after 48 hours post challenge, Right [1, 4]: 355 μm
- inflammatory response in challenged mice ([1]; all stages of the experiment): positive dynamics of reducing inflammatory response

Compound: CCN(CC)CCOC(=O)c1ccc(N)cc1 [procaine]
- recovery time [2]: 3 to 5 days

- Solubility in water [3]: water insoluble
- solution in waterish or organic solvents like Methanol [3]: not possible
Compound: chitosan
